Test results published in paper PMC10321442 (Preventive Nutrition and Food Science, 2023).

Biological target: α-amylase (Aspergillus oryzae, UniProt P0C1B3)
Assay: amylose hydrolysis inhibition at […], peroxidase-glucose oxidase readout
Assay type: biochemical
Settings: read-out: % inhibition at 0.50 mM

In the case of `COc1cc(/C=C/C(=O)O[C@H]2CC[C@]34C[C@]35CC[C@]3(C)[C@@H]([C@H](C)CCC=C(C)C)CC[C@@]3(C)[C@@H]5CC[C@H]4C2(C)C)ccc1O` [Cycloartenyl ferulate], the inhibition at 500 µM is reported as 12.7 ± 1.11%.
